# According to patent US12227512B2, “Benzimidazoles and methods of using same” (priority 2019, dated 2025):
# How the values were obtained:
# [1] = Mouse PK evaluation, plasma, IV; conditions: CD-1 mice; for concentration at 0.083 h / concentration at 0.25 h / concentration at 0.5 h / concentration at 1 h / concentration at 2 h / concentration at 4 h / concentration at 8 h / concentration at 24 h / AUC(0-inf) / AUC(0-t) / MRT inf / half-life: CD-1, mouse, plasma, 3 mg/kg; for concentration at 0.083 h / concentration at 0.25 h / concentration at 0.5 h / concentration at 1 h / concentration at 2 h / concentration at 4 h / concentration at 8 h / concentration at 24 h: intravenous, Plasma concentration; for AUC(0-inf) / AUC(0-t) / MRT inf / half-life: iv; for AUC(0-inf): AUCInf; for AUC(0-t): AUClast; for MRT inf: MRTInf_obs
# [2] = Neutral Red (Toxicity) of the antiviral screening; conditions: human, Huh7 cells
# [3] = Neutral Red (Toxicity) of the antiviral screening; conditions: African green monkey, Vero 76 cells
# Vero 76 = assay: Neutral Red (Toxicity) of the antiviral screening; conditions: Assay No. 3; Neutral Red (Cytopathic effect/Toxicity) line
# [4] = system: Dengue virus 2 New Guinea C; assay: In vitro antiviral screening, Visual (Virus yield reduction); conditions: Huh7; for SI90: Visual (Virus yield reduction)/Neutral Red (Toxicity); for EC90: Dengue virus, Visual (Virus yield reduction)
# Zika MR766 [5] = assay: as above; conditions: Vero 76
# [6] = system: Dengue virus 2 New Guinea C; assay: In vitro antiviral screening, Neutral Red (Cytopathic effect); conditions: Huh7; for SI50: Neutral Red (Cytopathic effect/Toxicity); for EC50: Dengue virus, Neutral Red (Cytopathic effect)
# Zika MR766 [7] = assay: as above; conditions: Vero 76
smiles,measurement,setting,value
CN(C)CCCn1c(N)nc2ccc3c(c21)CC(CO)O3 (centres unmarked) [DD041],"AUC_%Extrap_obs, Mean",[1]; 3 mg/kg IV,1.88%
same,"AUC_%Extrap_obs, Mouse 1",[1]; 3 mg/kg IV,3.73%
same,"AUC_%Extrap_obs, Mouse 2",[1]; 3 mg/kg IV,0.927%
same,"AUC_%Extrap_obs, Mouse 3",[1]; 3 mg/kg IV,0.993%
same,"AUClast/D, Mean",[1]; 3 mg/kg IV,262
same,"AUClast/D, Mouse 1",[1]; 3 mg/kg IV,261
same,"AUClast/D, Mouse 2",[1]; 3 mg/kg IV,251
same,"AUClast/D, Mouse 3",[1]; 3 mg/kg IV,274
same,"C0, Mean",[1]; 3 mg/kg IV,1959 ng/mL
same,"C0, Mouse 1",[1]; 3 mg/kg IV,2033 ng/mL
same,"C0, Mouse 2",[1]; 3 mg/kg IV,1738 ng/mL
same,"C0, Mouse 3",[1]; 3 mg/kg IV,2107 ng/mL
same,"Cl_obs, Mean",[1]; 3 mg/kg IV,62.5 mL/min/kg
same,"Cl_obs, Mouse 1",[1]; 3 mg/kg IV,61.4 mL/min/kg
same,"Cl_obs, Mouse 2",[1]; 3 mg/kg IV,65.8 mL/min/kg
same,"Cl_obs, Mouse 3",[1]; 3 mg/kg IV,60.3 mL/min/kg
same,"Vss_obs, Mean",[1]; 3 mg/kg IV,7.55 L/kg
same,"Vss_obs, Mouse 1",[1]; 3 mg/kg IV,5.80 L/kg
same,"Vss_obs, Mouse 2",[1]; 3 mg/kg IV,8.48 L/kg
same,"Vss_obs, Mouse 3",[1]; 3 mg/kg IV,8.37 L/kg
same,"Plasma concentration, Mouse 1","[1]; 3 mg/kg IV, 24 h",BLOQ
same,concentration at 0.083 h,"[1]; Mean, 3 mg/kg IV",1170 ng/mL
same,concentration at 0.25 h,"[1]; Mean, 3 mg/kg IV",417 ng/mL
same,concentration at 0.5 h,"[1]; Mean, 3 mg/kg IV",281 ng/mL
same,concentration at 1 h,"[1]; Mean, 3 mg/kg IV",161 ng/mL
same,concentration at 2 h,"[1]; Mean, 3 mg/kg IV",65.7 ng/mL
same,concentration at 4 h,"[1]; Mean, 3 mg/kg IV",27.4 ng/mL
same,concentration at 8 h,"[1]; Mean, 3 mg/kg IV",8.4 ng/mL
same,concentration at 24 h,"[1]; Mean, 3 mg/kg IV, 24 h",1.11 ng/mL
same,concentration at 0.083 h,"[1]; Mouse 1, 3 mg/kg IV",1250 ng/mL
same,concentration at 0.25 h,"[1]; Mouse 1, 3 mg/kg IV",470 ng/mL
same,concentration at 0.5 h,"[1]; Mouse 1, 3 mg/kg IV",322 ng/mL
same,concentration at 1 h,"[1]; Mouse 1, 3 mg/kg IV",145 ng/mL
same,concentration at 2 h,"[1]; Mouse 1, 3 mg/kg IV",67.5 ng/mL
same,concentration at 4 h,"[1]; Mouse 1, 3 mg/kg IV",31.6 ng/mL
same,concentration at 8 h,"[1]; Mouse 1, 3 mg/kg IV",9.69 ng/mL
same,concentration at 0.083 h,"[1]; Mouse 2, 3 mg/kg IV",1070 ng/mL
same,concentration at 0.25 h,"[1]; Mouse 2, 3 mg/kg IV",403 ng/mL
same,concentration at 0.5 h,"[1]; Mouse 2, 3 mg/kg IV",255 ng/mL
same,concentration at 1 h,"[1]; Mouse 2, 3 mg/kg IV",152 ng/mL
same,concentration at 2 h,"[1]; Mouse 2, 3 mg/kg IV",66.4 ng/mL
same,concentration at 4 h,"[1]; Mouse 2, 3 mg/kg IV",28.5 ng/mL
same,concentration at 8 h,"[1]; Mouse 2, 3 mg/kg IV",6 ng/mL
same,concentration at 24 h,"[1]; Mouse 2, 3 mg/kg IV, 24 h",1.05 ng/mL
same,concentration at 0.083 h,"[1]; Mouse 3, 3 mg/kg IV",1190 ng/mL
same,concentration at 0.25 h,"[1]; Mouse 3, 3 mg/kg IV",377 ng/mL
same,concentration at 0.5 h,"[1]; Mouse 3, 3 mg/kg IV",267 ng/mL
same,concentration at 1 h,"[1]; Mouse 3, 3 mg/kg IV",187 ng/mL
same,concentration at 2 h,"[1]; Mouse 3, 3 mg/kg IV",63.3 ng/mL
same,concentration at 4 h,"[1]; Mouse 3, 3 mg/kg IV",22 ng/mL
same,concentration at 8 h,"[1]; Mouse 3, 3 mg/kg IV",9.51 ng/mL
same,concentration at 24 h,"[1]; Mouse 3, 3 mg/kg IV, 24 h",1.17 ng/mL
same,AUC(0-inf),"[1]; Mean, 3 mg/kg IV",801 ng·h/mL
same,AUC(0-inf),"[1]; Mouse 1, 3 mg/kg IV",814 ng·h/mL
same,AUC(0-inf),"[1]; Mouse 2, 3 mg/kg IV",760 ng·h/mL
same,AUC(0-inf),"[1]; Mouse 3, 3 mg/kg IV",829 ng·h/mL
same,AUC(0-t),"[1]; Mean, 3 mg/kg IV",786 ng·h/mL
same,AUC(0-t),"[1]; Mouse 1, 3 mg/kg IV",784 ng·h/mL
same,AUC(0-t),"[1]; Mouse 2, 3 mg/kg IV",753 ng·h/mL
same,AUC(0-t),"[1]; Mouse 3, 3 mg/kg IV",821 ng·h/mL
same,MRT inf,"[1]; Mean, 3 mg/kg IV",2.01 h
same,MRT inf,"[1]; Mouse 1, 3 mg/kg IV",1.57 h
same,MRT inf,"[1]; Mouse 2, 3 mg/kg IV",2.15 h
same,MRT inf,"[1]; Mouse 3, 3 mg/kg IV",2.31 h
same,half-life,"[1]; T1/2, Mean, 3 mg/kg IV",3.9 h
same,half-life,"[1]; T1/2, Mouse 1, 3 mg/kg IV",2.17 h
same,half-life,"[1]; T1/2, Mouse 2, 3 mg/kg IV",4.65 h
same,half-life,"[1]; T1/2, Mouse 3, 3 mg/kg IV",4.87 h
same,CC50,"[2]; CC50, Assay No. 1, Neutral Red (Cytopathic effect/Toxicity) line",> 100 µM
same,CC50,"[2]; CC50, Assay No. 1, Neutral Red (Toxicity), line of the virus yield reduction assay",> 100 µM
same,CC50,"[2]; CC50, Assay No. 2, Neutral Red (Cytopathic effect/Toxicity) line",26 µM
same,CC50,"[2]; CC50, Assay No. 2, Neutral Red (Toxicity), line of the virus yield reduction assay",26 µM
same,CC50,[3],> 100 µM
same,CC50,Vero 76,> 100 µM
same,SI90,[4]; Assay No. 1,>10
same,SI90,[4]; Assay No. 2,14
same,EC90,"[4]; Huh-7, Assay No. 1",10 µM
same,EC90,"[4]; Huh-7, Assay No. 2",1.83 µM
same,SI90,"Zika MR766 [5]; Assay No. 3, Visual (Virus yield reduction)/Neutral Red (Toxicity)",>5.9
same,EC90,Zika MR766 [5]; Zika virus,17 µM
same,SI50,[6]; Assay No. 1,>15
same,SI50,[6]; Assay No. 2,4.6
same,EC50,"[6]; Huh-7, Assay No. 1",6.7 µM
same,EC50,"[6]; Huh-7, Assay No. 2",5.6 µM
same,SI50,"Zika MR766 [7]; Assay No. 3, Neutral Red (Cytopathic effect/Toxicity)",>9.1
same,EC50,Zika MR766 [7]; Zika virus,11 µM
